Experimental data taken from patent US6479435B1, “Diaryl ethers and processes for their preparation and herbicidal and desiccant compositions containing them” (ISK Americas Incorporated, priority 1997, dated 2002).

Experiments:
Assay type in all cases: in vivo
[1] = test system: common ragweed (Ambrosia artemisiifolia L., AMBEL); assay: Post-emerge greenhouse herbicide test, phytotoxicity rating; settings: 14 days after application; for phytotoxicity rating AMBEL: scale 0-100
How it was run: (§1)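 Plants at the 2-3 leaf stage, sown 8-21 days earlier, were track-sprayed post-emergence with compound in acetone plus 0.25% v/v non-ionic surfactant at 63-1000 g ai/ha (187 l/ha). Damage was rated at 14 days on a 0-100 scale (0 none, 100 all plants dead), for both crop injury and weed control.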

[2] = test system: redroot pigweed (Amaranthus retroflexus, AMARE); assay: Pre-emerge greenhouse herbicide test, phytotoxicity rating; settings: 14 days after application, rating scale 0-100
How it was run: (§2)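 Seeds sown in sandy loam one day before track-sprayer application of acetone solutions at 125–1000 g ai/ha (187 l/ha), then surface-watered to incorporate and bottom-watered. Injury scored visually at 14 days on a 0–100 scale (0 no damage, 100 complete death).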

[3] = test system: Johnsongrass (Sorghum halepense, SORHA); assay: as above; settings: 14 days after application, rating scale 0-100
How it was run: as §2

[4] = test system: velvetleaf (Abutilon theophrasti, ABUTH); assay: as above; settings: 14 days after application, rating scale 0-100
How it was run: as §2

[5] = test system: green foxtail (Setaria viridis, SETVI); assay: as above; settings: 14 days after application, rating scale 0-100
How it was run: as §2

[6] = test system: common ragweed (Ambrosia artemisiifolia L., AMBEL); assay: as above; settings: 14 days after application, rating scale 0-100
How it was run: as §2

[7] = test system: large crabgrass (Digitaria sanguinalis, DIGSA); assay: as above; settings: 14 days after application, rating scale 0-100
How it was run: as §2

[8] = test system: lambsquarters (Chenopodium album, CHEAL); assay: as above; settings: 14 days after application, rating scale 0-100
How it was run: as §2

[9] = test system: ivyleaf morningglory (Ipomoea hederacea, IPOHE); assay: as above; settings: 14 days after application, rating scale 0-100
How it was run: as §2

[10] = test system: sicklepod (Cassia obtusifolia, CASOB); assay: as above; settings: 14 days after application, rating scale 0-100
How it was run: as §2

[11] = test system: barnyardgrass (Echinochloa crusgalli, ECHCG); assay: as above; settings: 14 days after application, rating scale 0-100
How it was run: as §2

[12] = test system: upland rice (Oryza sp., var.Tebonnet, RICE); assay: Pre-emerge greenhouse test, crop damage rating; settings: 14 days after application, rating scale 0-100
How it was run: as §2

[13] = test system: field corn (Zea mays L., var. Dekalb 535, CORN); assay: Pre-emerge greenhouse test, crop damage rating; settings: 14 days after application, rating scale 0-100
How it was run: as §2

[14] = test system: upland rice (Oryza sp., var.Tebonnet, RICE); assay: Post-emerge greenhouse test, crop damage rating; settings: 14 days after application; for crop damage rating RICE: scale 0-100
How it was run: as §1

[15] = test system: field corn (Zea mays L., var. Dekalb 535, CORN); assay: Post-emerge greenhouse test, crop damage rating; settings: 14 days after application; for crop damage rating CORN: scale 0-100
How it was run: as §1

[16] = test system: redroot pigweed (Amaranthus retroflexus, AMARE); assay: Post-emerge greenhouse herbicide test, phytotoxicity rating; settings: 14 days after application; for phytotoxicity rating AMARE: scale 0-100
How it was run: as §1

[17] = test system: Johnsongrass (Sorghum halepense, SORHA); assay: as above; settings: 14 days after application
How it was run: as §1

[18] = test system: velvetleaf (Abutilon theophrasti, ABUTH); assay: as above; settings: 14 days after application; for phytotoxicity rating ABUTH: scale 0-100
How it was run: as §1

[19] = test system: green foxtail (Setaria viridis, SETVI); assay: as above; settings: 14 days after application; for phytotoxicity rating SETVI: scale 0-100
How it was run: as §1

[20] = test system: large crabgrass (Digitaria sanguinalis, DIGSA); assay: as above; settings: 14 days after application; for phytotoxicity rating DIGSA: scale 0-100
How it was run: as §1

[21] = test system: lambsquarters (Chenopodium album, CHEAL); assay: as above; settings: 14 days after application; for phytotoxicity rating CHEAL: scale 0-100
How it was run: as §1

[22] = test system: ivyleaf morningglory (Ipomoea hederacea, IPOHE); assay: as above; settings: 14 days after application; for phytotoxicity rating IPOHE: scale 0-100
How it was run: as §1

[23] = test system: barnyardgrass (Echinochloa crusgalli, ECHCG); assay: as above; settings: 14 days after application; for phytotoxicity rating ECHCG: scale 0-100
How it was run: as §1

[24] = test system: soybean (Glycine max L., var. Pella 86, SOY); assay: Post-emerge greenhouse test, crop damage rating; parameters: key to crop damage rating SOY: 0-100 scale: 0 = no damage, 100 = complete death of all plants; settings: 14 days after application; for crop damage rating SOY: scale 0-100
How it was run: as §1

[25] = test system: soybean (Glycine max L., var. Pella 86, SOY); assay: Pre-emerge greenhouse test, crop damage rating; parameters: key to SOY crop damage rating: 0 = no damage, 100 = complete death of all plants; settings: 14 days after application, rating scale 0-100
How it was run: as §2

Cc1nsc(Oc2cc(-n3c(=O)n4n(c3=S)CCCC4)c(F)cc2Cl)c1[N+](=O)[O-] [Compound 8-35]
phytotoxicity rating AMBEL ([1]; rate 63 g ai/ha): 10 | phytotoxicity rating AMBEL ([1]; rate 500 g ai/ha): 10 | AMARE phytotoxicity rating ([2]; Rate 125 g al/ha): 100 | AMARE phytotoxicity rating ([2]; Rate 500 g al/ha): 100 | SORHA phytotoxicity rating ([3]; Rate 125 g al/ha): 20 | SORHA phytotoxicity rating ([3]; Rate 500 g al/ha): 90 | ABUTH phytotoxicity rating ([4]; Rate 125 g al/ha): 100 | ABUTH phytotoxicity rating ([4]; Rate 500 g al/ha): 100 | SETVI phytotoxicity rating ([5]; Rate 125 g al/ha): 90 | SETVI phytotoxicity rating ([5]; Rate 500 g al/ha): 100 | AMBEL phytotoxicity rating ([6]; Rate 125 g al/ha): 50 | AMBEL phytotoxicity rating ([6]; Rate 500 g al/ha): 90 | DIGSA phytotoxicity rating ([7]; Rate 125 g al/ha): 0 | DIGSA phytotoxicity rating ([7]; Rate 500 g al/ha): 80 | CHEAL phytotoxicity rating ([8]; Rate 125 g al/ha): 100 | CHEAL phytotoxicity rating ([8]; Rate 500 g al/ha): 100 | IPOHE phytotoxicity rating ([9]; Rate 125 g al/ha): 50 | IPOHE phytotoxicity rating ([9]; Rate 500 g al/ha): 100 | CASOB phytotoxicity rating ([10]; Rate 125 g al/ha): 30 | CASOB phytotoxicity rating ([10]; Rate 500 g al/ha): 100 | ECHCG phytotoxicity rating ([11]; Rate 125 g al/ha): 10 | ECHCG phytotoxicity rating ([11]; Rate 500 g al/ha): 90 | RICE crop damage rating ([12]; Rate 500 g al/ha): 70 | CORN crop damage rating ([13]; Rate 125 g al/ha): 30 | CORN crop damage rating ([13]; Rate 500 g al/ha): 30 | crop damage rating RICE ([14]; rate 63 g ai/ha): 20 | crop damage rating RICE ([14]; rate 500 g ai/ha): 50 | crop damage rating CORN ([15]; rate 63 g ai/ha): 10 | crop damage rating CORN ([15]; rate 500 g ai/ha): 10 | phytotoxicity rating AMARE ([16]; rate 63 g ai/ha): 95 | phytotoxicity rating AMARE ([16]; rate 500 g ai/ha): 100 | phytotoxicity rating SORHA ([17]; rate 500 g ai/ha, scale 0-100): 80 | phytotoxicity rating ABUTH ([18]; rate 63 g ai/ha): 100 | phytotoxicity rating ABUTH ([18]; rate 500 g ai/ha): 100 | phytotoxicity rating SETVI ([19]; rate 63 g ai/ha): 40 | phytotoxicity rating SETVI ([19]; rate 500 g ai/ha): 60 | phytotoxicity rating DIGSA ([20]; rate 63 g ai/ha): 0 | phytotoxicity rating DIGSA ([20]; rate 500 g ai/ha): 10 | phytotoxicity rating CHEAL ([21]; rate 63 g ai/ha): 80 | phytotoxicity rating CHEAL ([21]; rate 500 g ai/ha): 99 | phytotoxicity rating IPOHE ([22]; rate 63 g ai/ha): 40 | phytotoxicity rating IPOHE ([22]; rate 500 g ai/ha): 95 | phytotoxicity rating ECHCG ([23]; rate 63 g ai/ha): 0 | phytotoxicity rating ECHCG ([23]; rate 500 g ai/ha): 80 | crop damage rating SOY ([24]; rate 63 g ai/ha): 20 | crop damage rating SOY ([24]; rate 500 g ai/ha): 90 | SOY crop damage rating ([25]; Rate 125 g al/ha): 0 | SOY crop damage rating ([25]; Rate 500 g al/ha): 30

CCOC(=O)C(C)Oc1ccc(Oc2cc(-n3c(=O)n4n(c3=S)CCCC4)c(F)cc2Cl)cc1 (centres unmarked) [Compound 8-11]
AMBEL phytotoxicity rating (0-100) ([1]; 63 g al/ha): 100 | AMBEL phytotoxicity rating (0-100) ([1]; 500 g al/ha): 100 | phytotoxicity rating AMARE ([2]; 125 g ai/ha): 100 | phytotoxicity rating AMARE ([2]; 500 g ai/ha): 100 | phytotoxicity rating SORHA ([3]; 125 g ai/ha): 70 | phytotoxicity rating SORHA ([3]; 500 g ai/ha): 40 | phytotoxicity rating ABUTH ([4]; 125 g ai/ha): 100 | phytotoxicity rating ABUTH ([4]; 500 g ai/ha): 100 | phytotoxicity rating SETVI ([5]; 125 g ai/ha): 90 | phytotoxicity rating SETVI ([5]; 500 g ai/ha): 100 | phytotoxicity rating AMBEL ([6]; 125 g ai/ha): 95 | phytotoxicity rating AMBEL ([6]; 500 g ai/ha): 100 | phytotoxicity rating DIGSA ([7]; 125 g ai/ha): 20 | phytotoxicity rating DIGSA ([7]; 500 g ai/ha): 80 | phytotoxicity rating CHEAL ([8]; 125 g ai/ha): 100 | phytotoxicity rating CHEAL ([8]; 500 g ai/ha): 100 | phytotoxicity rating IPOHE ([9]; 125 g ai/ha): 70 | phytotoxicity rating IPOHE ([9]; 500 g ai/ha): 100 | phytotoxicity rating CASOB ([10]; 125 g ai/ha): 70 | phytotoxicity rating CASOB ([10]; 500 g ai/ha): 60 | phytotoxicity rating ECHCG ([11]; 125 g ai/ha): 60 | phytotoxicity rating ECHCG ([11]; 500 g ai/ha): 70 | crop damage rating RICE ([12]; 125 g ai/ha): 50 | crop damage rating RICE ([12]; 500 g ai/ha): 80 | crop damage rating CORN ([13]; 125 g ai/ha): 0 | crop damage rating CORN ([13]; 500 g ai/ha): 0 | RICE crop damage rating (0-100) ([14]; 63 g al/ha): 40 | RICE crop damage rating (0-100) ([14]; 500 g al/ha): 50 | CORN crop damage rating (0-100) ([15]; 63 g al/ha): 20 | CORN crop damage rating (0-100) ([15]; 500 g al/ha): 95 | AMARE phytotoxicity rating (0-100) ([16]; 63 g al/ha): 100 | AMARE phytotoxicity rating (0-100) ([16]; 500 g al/ha): 100 | SORHA phytotoxicity rating (0-100) ([17]; 63 g al/ha): 90 | SORHA phytotoxicity rating (0-100) ([17]; 500 g al/ha): 99 | ABUTH phytotoxicity rating (0-100) ([18]; 63 g al/ha): 100 | ABUTH phytotoxicity rating (0-100) ([18]; 500 g al/ha): 100 | SETVI phytotoxicity rating (0-100) ([19]; 63 g al/ha): 30 | SETVI phytotoxicity rating (0-100) ([19]; 500 g al/ha): 60 | DIGSA phytotoxicity rating (0-100) ([20]; 63 g al/ha): 50 | DIGSA phytotoxicity rating (0-100) ([20]; 500 g al/ha): 90 | CHEAL phytotoxicity rating (0-100) ([21]; 63 g al/ha): 100 | CHEAL phytotoxicity rating (0-100) ([21]; 500 g al/ha): 100 | IPOHE phytotoxicity rating (0-100) ([22]; 63 g al/ha): 100 | IPOHE phytotoxicity rating (0-100) ([22]; 500 g al/ha): 100 | ECHCG phytotoxicity rating (0-100) ([23]; 63 g al/ha): 100 | ECHCG phytotoxicity rating (0-100) ([23]; 500 g al/ha): 100 | SOY crop damage rating (0-100) ([24]; 63 g al/ha): 90 | SOY crop damage rating (0-100) ([24]; 500 g al/ha): 100 | crop damage rating SOY ([25]; 125 g ai/ha): 20 | crop damage rating SOY ([25]; 500 g ai/ha): 30
